Source: PubChem BioAssay (NCI)
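Method: 48-hour compound exposure of cells in 96-well plates, five concentrations, linear interpolation of endpoints. At the GI50, growth is halved. At the TGI there is no net growth.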 Where a SMILES comes first, the peptide text is derived from it. [ ]: non-standard residue; d: D form. ξ: configuration not given here. ξThz(5,5-Me2) = CC1(C)SCNC1C(=O)O

What was measured:
Assay in all cases: NCI-60 cell line screen, 48 h
[1] = test system: HL-60(TB) leukemia
[2] = test system: DU-145 prostate
[3] = test system: SNB-19 CNS
[4] = test system: OVCAR-5 ovarian
[5] = test system: SF-539 CNS
[6] = test system: SW-620 colon
[7] = test system: KM12 colon
[8] = test system: M14 melanoma
[9] = test system: MCF7 breast
[10] = test system: NCI/ADR-RES ovarian
[11] = test system: BT-549 breast
[12] = test system: HT29 colon
[13] = test system: HOP-62 NSCLC
[14] = test system: SK-OV-3 ovarian
[15] = test system: MDA-MB-435
[16] = test system: SF-295 CNS
[17] = test system: NCI-H23 lung
[18] = test system: SK-MEL-28 melanoma
[19] = test system: UACC-257 melanoma
[20] = test system: NCI-H226 lung
[21] = test system: TK-10 renal
[22] = test system: PC-3 prostate
[23] = test system: HCC-2998 colon
[24] = test system: NCI-H522 lung
[25] = test system: IGROV1 ovarian
[26] = test system: UACC-62 melanoma
[27] = test system: HOP-92 NSCLC
[28] = test system: SNB-75 CNS
[29] = test system: UO-31 renal
[30] = test system: 786-0 renal
[31] = test system: OVCAR-8 ovarian
[32] = test system: A498 renal
[33] = test system: MALME-3M melanoma
[34] = test system: HCT-116 colon
[35] = test system: COLO 205 colon
[36] = test system: NCI-H460 lung
[37] = test system: OVCAR-4 ovarian
[38] = test system: MDA-MB-231 breast
[39] = test system: OVCAR-3 ovarian
[40] = test system: A549 NSCLC
[41] = test system: ACHN renal
[42] = test system: SK-MEL-5 melanoma
[43] = test system: SN12C renal
[44] = test system: HCT-15 colon
[45] = test system: T-47D breast
[46] = test system: RPMI-8226 leukemia
[47] = test system: SF-268 CNS
[48] = test system: LOX IMVI melanoma
[49] = test system: U251 CNS
[50] = test system: CAKI-1 renal
[51] = test system: EKVX NSCLC
[52] = test system: MOLT-4 leukemia
[53] = test system: CCRF-CEM leukemia
[54] = test system: RXF 393 renal
[55] = test system: SK-MEL-2 melanoma
[56] = test system: K-562 leukemia

COc1cc(OC)cc(-c2ccc(-c3ccc(C(=N)N)cc3)s2)c1
GI50 [1]: 1900 nM | TGI [1]: 3740 nM | GI50 [2]: 1770 nM | TGI [2]: 3240 nM

COc1cc(C=C2c3ccccc3C(=O)c3ccccc32)ccc1OCCCCOc1cc2c(cc1OC)C(=O)N1CCCC1C=N2 (stereo not drawn)
GI50 [3]: 1020 nM | TGI [3]: 2560 nM | GI50 [4]: 581 nM | TGI [4]: 1450 nM | GI50 [5]: 352 nM | TGI [5]: 1390 nM | GI50 [1]: 142 nM | TGI [1]: 389 nM | GI50 [6]: 214 nM | TGI [6]: 501 nM | GI50 [7]: 227 nM | TGI [7]: 608 nM | GI50 [8]: 440 nM | TGI [8]: 1470 nM | GI50 [2]: 208 nM | TGI [2]: 479 nM | GI50 [9]: 304 nM | TGI [9]: 1640 nM | GI50 [10]: 1620 nM | TGI [10]: 8830 nM | GI50 [11]: 91.5 nM | TGI [11]: 542 nM | GI50 [12]: 278 nM | TGI [12]: 1460 nM | GI50 [13]: 579 nM | TGI [13]: 1310 nM | GI50 [14]: 1410 nM | TGI [14]: 3890 nM | GI50 [15]: 227 nM | TGI [15]: 601 nM | GI50 [16]: 765 nM | TGI [16]: 2340 nM | GI50 [17]: 337 nM | TGI [17]: 1490 nM | GI50 [18]: 192 nM | TGI [18]: 430 nM | GI50 [19]: 1090 nM | TGI [19]: 2550 nM | GI50 [20]: 1260 nM | TGI [20]: 3130 nM | GI50 [21]: 302 nM | TGI [21]: 896 nM | GI50 [22]: 274 nM | TGI [22]: 3560 nM | GI50 [23]: 342 nM | TGI [23]: 816 nM | GI50 [24]: 612 nM | TGI [24]: 9950 nM | GI50 [25]: 321 nM | TGI [25]: 804 nM | GI50 [26]: 407 nM | TGI [26]: 1470 nM | GI50 [27]: 244 nM | TGI [27]: 1050 nM | GI50 [28]: 391 nM | TGI [28]: 1800 nM | GI50 [29]: 656 nM | TGI [29]: 2090 nM | GI50 [30]: 448 nM | TGI [30]: 1110 nM | GI50 [31]: 310 nM | TGI [31]: 1260 nM | GI50 [32]: 454 nM | TGI [32]: 1610 nM | GI50 [33]: 399 nM | TGI [33]: 1590 nM | GI50 [34]: 174 nM | TGI [34]: 409 nM | GI50 [35]: 469 nM | TGI [35]: 1670 nM | GI50 [36]: 703 nM | TGI [36]: 2350 nM | GI50 [37]: 456 nM | TGI [37]: 8450 nM | GI50 [38]: 603 nM | TGI [38]: 11800 nM | GI50 [39]: 200 nM | TGI [39]: 458 nM | GI50 [40]: 785 nM | TGI [40]: 3220 nM | GI50 [41]: 525 nM | TGI [41]: 1690 nM | GI50 [42]: 782 nM | TGI [42]: 2050 nM | GI50 [43]: 458 nM | TGI [43]: 1880 nM | GI50 [44]: 377 nM | TGI [44]: 1500 nM | GI50 [45]: 356 nM | TGI [45]: 1780 nM | GI50 [46]: 101 nM | TGI [46]: 354 nM | GI50 [47]: 242 nM | TGI [47]: 726 nM | GI50 [48]: 279 nM | TGI [48]: 890 nM | GI50 [49]: 249 nM | TGI [49]: 704 nM | GI50 [50]: 314 nM | TGI [50]: 1020 nM | GI50 [51]: 1140 nM | TGI [51]: 3170 nM

COc1cc(/C=C/c2cc(/C=C/c3ccc(O)c(OC)c3)n(C(=O)Cc3ccccc3)n2)ccc1O
GI50 [52]: 464 nM | TGI [52]: > 100000 nM | GI50 [3]: 2430 nM | TGI [3]: > 100000 nM | GI50 [4]: 2770 nM | TGI [4]: 80000 nM | GI50 [5]: 475 nM | TGI [5]: 3910 nM | GI50 [6]: 684 nM | TGI [6]: 10900 nM | GI50 [7]: 461 nM | TGI [7]: > 100000 nM | GI50 [8]: 399 nM | TGI [8]: 2640 nM | GI50 [2]: 1480 nM | TGI [2]: 8630 nM | GI50 [9]: 333 nM | TGI [9]: 2520 nM | GI50 [10]: 792 nM | TGI [10]: 10900 nM | GI50 [11]: 758 nM | TGI [11]: 3930 nM | GI50 [12]: 1660 nM | TGI [12]: 4500 nM | GI50 [53]: 333 nM | TGI [53]: > 100000 nM | GI50 [14]: 690 nM | TGI [14]: 2640 nM | GI50 [15]: 218 nM | TGI [15]: 587 nM | GI50 [16]: 2010 nM | TGI [16]: 6480 nM | GI50 [54]: 1140 nM | TGI [54]: 3480 nM | GI50 [17]: 1560 nM | TGI [17]: 6590 nM | GI50 [18]: 1210 nM | TGI [18]: 15100 nM | GI50 [19]: 2680 nM | TGI [19]: 11500 nM | GI50 [20]: 2670 nM | TGI [20]: 9880 nM | GI50 [21]: 2580 nM | TGI [21]: 9090 nM | GI50 [22]: 915 nM | TGI [22]: 4340 nM | GI50 [23]: 2900 nM | TGI [23]: 11300 nM | GI50 [24]: 323 nM | TGI [24]: 1490 nM | GI50 [26]: 883 nM | TGI [26]: 4760 nM | GI50 [28]: 545 nM | TGI [28]: 3450 nM | GI50 [29]: 466 nM | TGI [29]: 4310 nM | GI50 [30]: 916 nM | TGI [30]: 4530 nM | GI50 [31]: 1850 nM | TGI [31]: 16700 nM | GI50 [32]: 2410 nM | TGI [32]: 6930 nM | GI50 [33]: 644 nM | TGI [33]: 4980 nM | GI50 [55]: 516 nM | TGI [55]: 2510 nM | GI50 [34]: 491 nM | TGI [34]: 6760 nM | GI50 [36]: 526 nM | TGI [36]: 10400 nM | GI50 [37]: 1110 nM | TGI [37]: 6390 nM | GI50 [38]: 1450 nM | TGI [38]: 20900 nM | GI50 [39]: 1120 nM | TGI [39]: 5270 nM | GI50 [40]: 2800 nM | TGI [40]: 16600 nM | GI50 [41]: 419 nM | TGI [41]: 29200 nM | GI50 [42]: 532 nM | TGI [42]: 3170 nM | GI50 [43]: 1530 nM | TGI [43]: 44500 nM | GI50 [44]: 388 nM | TGI [44]: 3790 nM | GI50 [45]: 1330 nM | TGI [45]: 5170 nM | GI50 [46]: 411 nM | TGI [46]: 2240 nM | GI50 [48]: 609 nM | TGI [48]: 9020 nM | GI50 [56]: 434 nM | TGI [56]: > 100000 nM | GI50 [49]: 1210 nM | TGI [49]: 11200 nM | GI50 [50]: 730 nM | TGI [50]: 38400 nM

CSCC[C@H](NC(=O)[C@H](CC(C)C)NC(=O)[C@H](Cc1c[nH]cn1)NC(=O)CNC(=O)C1N(C(=O)[C@@H](C)NC(=O)[C@H](Cc2c[nH]c3ccccc23)NC(=O)[C@H](CCC(N)=O)NC(=O)[C@@H](N)CC(N)=O)CSC1(C)C)C(N)=O (stereo partly drawn) (H-NQW[dA][ξThz(5,5-Me2)]GHLM-NH2)
TGI [17]: > 25000 nM | TGI [19]: > 25000 nM | TGI [20]: > 25000 nM | TGI [27]: > 25000 nM
